Values after ≈ are worked out from the molar mass of the structure shown.
Assays:
[1] = Rate of the reaction between N-acetyl-L-cysteine and chalcones, HPLC; assay type: physicochemical; conditions: methanol-water-potassium phosphate buffer pH 7.5, 30° C.; first order
Description: The decline of the chalcone concentration was followed by HPLC. The following experimental setups were used: 1. […] 2. […] This system was used i the case of 4′-methoxychalcone. The rate of decline of the chalcone concentration was followed by HPLC. The rate constant was estimated using Grafit and assuming that the reaction followed first order kinetic; i.e.: [c]=[c0]exp(−kt) where [c] is the concentration of the chalcone in question at time t, [c0] is the concentration of the chalcone in question at time zero, k is the rate constant, and t the time.

[2] = system: chloroquine resistant P. falciparum DD2 strain; assay: In vitro growth of P. falciparum DD2, 3H-hypoxanthine uptake (Example 15); assay type: cell-based, Plasmodium falciparum; conditions: title: percentage inhibition of 3H-hypoxanthine uptake
[3] = system: L. major promastigotes; assay: In vitro growth of L. major promastigotes, 3H-thymidine uptake (Example 4); assay type: cell-based, Leishmania major; conditions: in vitro L. major growth test
[4] = 4-Hydroxychalcone toxicity study in mice, i.p. (Example 22); assay type: in vivo, BALB/c female mice; conditions: for No. died after 24 h: n 4
Description: Mice. BALB/c female mice, 8 weeks old, 20 g body weight.
Drug. 4Hydroxychalcone prepared as in Example 2.
LD50. 80 mg of 4hydroxychalcone was dissolved in 0.2 ml of 99% (v/v) ethanol, and then mixed with 240 mg of Brij 35 dissolved in 19.8 ml of buffer pH 73 (NaH2PO4.H2O 26 mg, Na2HPO4.2H2O 520 mg and distilled water 100 ml), and then sterile filtered through a 0.22 μm Millipore filter. Drug was injected intraperitoneally into mice once.

[5] = system: human lymphocytes; assay: Lymphocyte Proliferation Assay, 3H-thymidine incorporation (Example 13); conditions: Homo sapiens, Lymphocyte, read-out: inhibition of lymphocytes (lower figure)
[6] = system: P. falciparum; assay: P. falciparum growth in vitro (Table 14.1, strain not stated); assay type: cell-based; conditions: Plasmodium falciparum, read-out: inhibition of malaria parasites (middle figure) (converted)
Description: The P. falciparum experimental setup was as described in Example 15.
Testing of the effect of drugs and serum on the in vitro growth of the parasites. The experiments in which compounds were tested for their ability to inhibit parasite growth were performed by a modification of the method originally described by Jensen et al. (1982). Fifty μl of parasitized erythrocytes (parasitemia approximately 1%) in a concentration of 5×10^8/ml and 50 μl of RPMI medium containing different concentrations of the test compound was added to each well of a 96 well flat-bottomed microtiter plate (Nunc). The cultures were then incubated for 48 hours, 24 hours before termination of the culture adding 20 μl of 3-H-hypoxanthine (40 uCi/ml) (New England Nuclear, Boston, Mass., USA) was added to each well. The cultures were then harvested onto glass fiber filters using a Skatron cell harvester (Skatron, Lierbyen, Norway), and the incorporation of 3-H-hypoxanthine into the DNA of dividing parasites was determined by liquid scintillation spectrometry.

[7] = system: chloroquine-sensitive P. falciparum 3D7A strain; assay: In vitro growth of P. falciparum 3D7A, 3H-hypoxanthine uptake (Example 15); assay type: cell-based, Plasmodium falciparum; conditions: for Percentage inhibition of 3H-hypoxanthine uptake (mean ± SEM): title: percentage inhibition of 3H-hypoxanthine uptake
[8] = system: L. major promastigotes; assay: L. major promastigotes from 4-days cultures, 3H-thymidine uptake (Examples 5, 14); assay type: cell-based, Leishmania major; conditions: Leishmania major, Table 14.1, read-out: percentage inhibition of promastigotes (upper figure)
Procedure, shortened: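 Promastigotes harvested on day 4 of culture were exposed to compound, then pulsed with 100 μC 3H-thymidine for a further 18 h. Cells were collected on filter paper, washed, and incorporated radioactivity counted by scintillation.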

For `C=CCOc1ccc(C(=O)CCc2ccc(OC)cc2OC)cc1`, the “Estimated rate constant k” value [1] was 0.0011 min⁻¹.
With `C=CC(C)(OC)c1cc(CCC(=O)c2ccc(O)cc2)c(OC)cc1O` (stereo not shown) the “Estimated rate constant k” value [1] was 0.00058 min⁻¹.
In the case of `C=CCOc1ccc(C(=O)/C=C/c2cccc(OC)c2OC)cc1` [2,3-Dimethoxy-4′-allyloxychalcone, 2,3-dimethoxy-4′-prop-2-enyloxychalcone], the “Growth in % of control (mean ± SEM)” value ([2]; 0.5 μg/ml) is reported as 28.5 ± 9.6%, the “Growth in % of control (mean ± SEM)” value ([2]; 1 μg/ml) is reported as 29.6 ± 10.9% and the “Growth in % of control (mean ± SEM)” value ([2]; 5 μg/ml) is reported as 22.2 ± 10.1%. The “Growth in % of control (mean ± SEM)” value ([2]; 10 μg/ml) was 49.9 ± 9.1% and the melting point was 98 to 99 °C.
For `C=CCOc1ccc(C(=O)/C=C/c2c(OC)cccc2OC)cc1` [2,6-Dimethoxy-4′-allyloxychalcone, 2,6-dimethoxy-4′-prop-2-enyloxychalcone], the “Growth in % of control (mean ± SEM)” value ([2]; 0.5 μg/ml) was 23.3 ± 10.9%, the “Growth in % of control (mean ± SEM)” value ([2]; 1 μg/ml) was 24.3 ± 9.5% and the “Growth in % of control (mean ± SEM)” value ([2]; 5 μg/ml) was 40.2 ± 8.7%. For the same compound, the “Growth in % of control (mean ± SEM)” value ([2]; 10 μg/ml) was 56.7 ± 8.9% and the melting point was 102 to 103 °C.
In the case of `CC(C)=CCc1cc(/C=C/C(=O)c2ccc(O)c(CC=C(C)C)c2O)ccc1O` [4,2′,4′-trihydroxy-3,3′-di-(3-methylbut-2-enyl)chalcone], the “antiparasitic effect in bioassay-guided fractionation” value [3] is reported as “showed major antiparasitic effects”.
For `O=C(/C=C/c1ccc(O)cc1)c1ccccc1` [4-Hydroxychalcone, 4-hydroxychalcone], the “No. died after 24 h” value ([4]; 50 mg/kg i.p.) was 0, the “No. died after 24 h” value ([4]; 100 mg/kg i.p.) was 0 and the “No. died after 24 h” value ([4]; 200 mg/kg i.p.) was 1. For the same compound, the “No. died after 24 h” value ([4]; 400 mg/kg i.p.) was 2, the “LD50, intraperitoneally” value ([4]; mice) was 400 mg per kg and the inhibition at 1 µg/mL [5] was 2.24%. For the same compound, the inhibition at 5 µg/mL [5] was 7.73%, the inhibition at 10 µg/mL [5] was 14.2% and the inhibition at 0.5 µg/mL ([6]; 0.5 μg/ml) was 20.5%. The inhibition at 1 µg/mL ([6]; 1 μg/ml) was 29.2%, the inhibition at 5 µg/mL ([6]; 5 μg/ml) was 61.3% and the inhibition at 10 µg/mL ([6]; 10 μg/ml) was 88.2%. For the same compound, the IC50 ([7]; Plasmodium falciparum, read-out: concentration in which growth was retarded by 50%) was 1 to 5 µg/mL (≈ 4.46 to 22.3 µM), the “Percentage inhibition of 3H-hypoxanthine uptake (mean ± SEM)” value (from here on “Percentage inhibition … (mean ± SEM)”) ([7]; 0.5 μg/ml) was 20.5 ± 10.9% and the “Percentage inhibition … (mean ± SEM)” value ([7]; 1 μg/ml) was 29.2 ± 7.7%. The “Percentage inhibition … (mean ± SEM)” value ([7]; 5 μg/ml) was 61.3 ± 10.6%, the “Percentage inhibition … (mean ± SEM)” value ([7]; 10 μg/ml) was 88.2 ± 5.3% and the inhibition at 0.5 µg/mL ([8]; 0.5 μg/ml) was 7%. For the same compound, the inhibition at 1 µg/mL ([8]; 1 μg/ml) was 49.1 ± 16.8%, the inhibition at 5 µg/mL ([8]; 5 μg/ml) was 80.1 ± 12.6% and the inhibition at 10 µg/mL ([8]; 10 μg/ml) was 91 ± 5.4%.
